Reference: ChEMBL document CHEMBL5543144, “Discovery of a Novel Potent Tetrazole Antifungal Candidate with High Selectivity and Broad Spectrum” (J Med Chem, 2024)
Converted amounts (≈) assume the structure as drawn. The source made the active and inactive calls. No cut-off for these calls is given here.

Columns and labels:
[1] = tested on: [Candida] auris; test: Antifungal activity against fluconazole resistant Candida auris 791 assessed as inhibition of fungal growth incubated for 48 hrs by CLSI protocol based microbroth dilution method; format: functional; details: Candidozyma auris
[2] = tested on: [Candida] auris; test: Antifungal activity against fluconazole resistant Candida auris D12 assessed as inhibition of fungal growth incubated for 48 hrs by CLSI protocol based microbroth dilution method; format: functional; details: Candidozyma auris
[3] = tested on: Candida tropicalis; test: Antifungal activity against Candida tropicalis 2718 assessed as inhibition of fungal growth incubated for 24 hrs by CLSI protocol based microbroth dilution method; format: functional
[4] = tested on: Pichia kudriavzevii; test: Antifungal activity against Candida krusei 4946 assessed as inhibition of fungal growth incubated for 24 hrs by CLSI protocol based microbroth dilution method; format: functional
[5] = tested on: [Candida] auris; test: Antifungal activity against fluconazole resistant Candida auris 789 assessed as inhibition of fungal growth incubated for 48 hrs by CLSI protocol based microbroth dilution method; format: functional; details: Candidozyma auris
[6] = tested on: Cryptococcus neoformans; test: Antifungal activity against Cryptococcus neoformans H99 assessed as inhibition of fungal growth incubated for 72 hrs by CLSI protocol based microbroth dilution method; format: functional
[7] = tested on: Aspergillus fumigatus; test: Antifungal activity against Aspergillus fumigatus 7544 assessed as inhibition of fungal growth incubated for 48 hrs by CLSI protocol based microbroth dilution method; format: functional
[8] = tested on: [Candida] auris; test: Antifungal activity against fluconazole resistant Candida auris 888 assessed as inhibition of fungal growth incubated for 48 hrs by CLSI protocol based microbroth dilution method; format: functional; details: Candidozyma auris
[9] = tested on: [Candida] auris; test: Antifungal activity against fluconazole resistant Candida auris 887 assessed as inhibition of fungal growth incubated for 48 hrs by CLSI protocol based microbroth dilution method; format: functional; details: Candidozyma auris
[10] = tested on: Candida parapsilosis; test: Antifungal activity against Candida parapsilosis 22019 assessed as inhibition of fungal growth incubated for 24 hrs by CLSI protocol based microbroth dilution method; format: functional; details: Lodderomyces parapsilosis
[11] = tested on: [Candida] auris; test: Antifungal activity against fluconazole resistant Candida auris BS12372 assessed as inhibition of fungal growth incubated for 48 hrs by CLSI protocol based microbroth dilution method; format: functional; details: Candidozyma auris
[12] = tested on: Candida albicans; test: Antifungal activity against Candida albicans SC5314 assessed as inhibition of fungal growth incubated for 24 hrs by CLSI protocol based microbroth dilution method; format: functional
[13] = tested on: Nakaseomyces glabratus; test: Antifungal activity against Candida glabrata 537 assessed as inhibition of fungal growth incubated for 48 hrs by CLSI protocol based microbroth dilution method; format: functional
[14] = tested on: Candida albicans; test: Antifungal activity against Candida albicans SC5314 assessed as inhibition of fungal growth at 0.0156 ug/ml incubated for 24 hrs by plate reader analysis; format: functional, organism-based; details: dose 0.0156 µg/ml
[15] = tested on: Cryptococcus neoformans; test: Antifungal activity against Cryptococcus neoformans H99 assessed as inhibition of fungal growth at 0.125 ug/ml incubated for 48 hrs by plate reader analysis; format: functional, organism-based; details: dose 0.125 µg/ml

Structure (SMILES)	MIC50 [3] [µg/mL]	MIC50 [4] [µg/mL]	MIC50 [6] [µg/mL]	MIC50 [7] [µg/mL]	MIC50 [10] [µg/mL]	MIC50 [12] [µg/mL]	MIC50 [13] [µg/mL]	MIC50 [1] [µg/mL]	MIC50 [2] [µg/mL]	MIC50 [5] [µg/mL]	MIC50 [8] [µg/mL]	MIC50 [9] [µg/mL]	MIC50 [11] [µg/mL]	Activity [14]	Activity [15]
C[C@@H](c1ncncc1F)[C@](O)(Cn1cncn1)c1ccc(F)cc1F [VORICONAZOLE]	< 0.008	0.063 (≈ 0.18 µM)	0.063 (≈ 0.18 µM)	0.25 (≈ 0.716 µM)	0.016 (≈ 0.0458 µM)	< 0.008	< 0.008	4 (≈ 11.5 µM)	2 (≈ 5.73 µM)	2 (≈ 5.73 µM)	2 (≈ 5.73 µM)	2 (≈ 5.73 µM)	2 (≈ 5.73 µM)		
C[C@@H](n1ccc2cc(-c3ccccc3)ccc2c1=O)[C@](O)(Cn1cncn1)c1ccc(F)cc1F	0.016 (≈ 0.0339 µM)	1 (≈ 2.12 µM)	0.5 (≈ 1.06 µM)	8 (≈ 16.9 µM)	0.063 (≈ 0.133 µM)	< 0.008	0.063 (≈ 0.133 µM)								
C[C@@H](n1ncc2cc(Cl)ccc2c1=O)[C@](O)(Cn1cncn1)c1ccc(F)cc1F	< 0.008	0.125 (≈ 0.289 µM)	< 0.008	0.25 (≈ 0.579 µM)	< 0.008	< 0.008	< 0.008	1 (≈ 2.32 µM)	0.5 (≈ 1.16 µM)	2 (≈ 4.63 µM)	1 (≈ 2.32 µM)	1 (≈ 2.32 µM)	0.5 (≈ 1.16 µM)	Active	Active
C[C@@H](n1ccc2cc(F)ccc2c1=O)[C@](O)(Cn1cnnn1)c1ccc(F)cc1F	< 0.008	1 (≈ 2.41 µM)	0.016 (≈ 0.0385 µM)	4 (≈ 9.63 µM)	0.063 (≈ 0.152 µM)	< 0.008	0.063 (≈ 0.152 µM)								
CC[C@@H]([C@H](C)O)n1ncn(-c2ccc(N3CCN(c4ccc(OC[C@@H]5CO[C@@](Cn6cncn6)(c6ccc(F)cc6F)C5)cc4)CC3)cc2)c1=O [POSACONAZOLE]	< 0.008	0.5 (≈ 0.713 µM)	0.063 (≈ 0.0899 µM)	0.25 (≈ 0.357 µM)	0.25 (≈ 0.357 µM)	0.016 (≈ 0.0228 µM)	0.5 (≈ 0.713 µM)	2 (≈ 2.85 µM)	0.5 (≈ 0.713 µM)	16 (≈ 22.8 µM)	8 (≈ 11.4 µM)	16 (≈ 22.8 µM)	1 (≈ 1.43 µM)		
C[C@@H](n1cnc2cc(OC(F)(F)F)ccc2c1=O)[C@](O)(Cn1cnnn1)c1ccc(F)cc1F	0.031 (≈ 0.0643 µM)	> 4	0.125 (≈ 0.259 µM)	32 (≈ 66.3 µM)	0.25 (≈ 0.518 µM)	< 0.008	< 0.008								
C[C@@H](n1cnc2cc(C(F)(F)F)ccc2c1=O)[C@](O)(Cn1cnnn1)c1ccc(F)cc1F	< 0.008	> 4	4 (≈ 8.58 µM)	16 (≈ 34.3 µM)	0.125 (≈ 0.268 µM)	< 0.008	< 0.008								

The next lines start with results.

MIC50 [3] [µg/mL]	MIC50 [4] [µg/mL]	MIC50 [6] [µg/mL]	MIC50 [7] [µg/mL]	MIC50 [10] [µg/mL]	MIC50 [12] [µg/mL]	MIC50 [13] [µg/mL]	Structure (SMILES)	MIC50 [1] [µg/mL]	MIC50 [2] [µg/mL]	MIC50 [5] [µg/mL]	MIC50 [8] [µg/mL]	MIC50 [9] [µg/mL]	MIC50 [11] [µg/mL]	Activity [14]	Activity [15]
1 (≈ 2.08 µM)	8 (≈ 16.6 µM)	2 (≈ 4.15 µM)	> 64	2 (≈ 4.15 µM)	0.25 (≈ 0.519 µM)	4 (≈ 8.31 µM)	C[C@@H](n1ncc2cn(-c3ccc(F)cc3)nc2c1=O)[C@](O)(Cn1cncn1)c1ccc(F)cc1F								
< 0.008	0.016 (≈ 0.0386 µM)	< 0.008	0.25 (≈ 0.603 µM)	< 0.008	< 0.008	0.016 (≈ 0.0386 µM)	C[C@@H](n1ccc2cc(F)ccc2c1=O)[C@](O)(Cn1cncn1)c1ccc(F)cc1F								
< 0.008	0.063 (≈ 0.136 µM)	< 0.008	0.5 (≈ 1.08 µM)	< 0.008	< 0.008	< 0.008	C[C@@H](n1ccc2cc(C(F)(F)F)ccc2c1=O)[C@](O)(Cn1cncn1)c1ccc(F)cc1F								
0.063 (≈ 0.159 µM)	1 (≈ 2.52 µM)	0.063 (≈ 0.159 µM)	4 (≈ 10.1 µM)	0.063 (≈ 0.159 µM)	0.008 (≈ 0.0201 µM)	0.031 (≈ 0.078 µM)	C[C@@H](n1ncc2ccccc2c1=O)[C@](O)(Cn1cncn1)c1ccc(F)cc1F								
0.5 (≈ 1.08 µM)	> 64	> 64	> 64	1 (≈ 2.16 µM)	0.5 (≈ 1.08 µM)	1 (≈ 2.16 µM)	C[C@@H](n1ncc2cn(-c3ccccc3)nc2c1=O)[C@](O)(Cn1cncn1)c1ccc(F)cc1F								
< 0.008	0.125 (≈ 0.305 µM)	< 0.008	0.5 (≈ 1.22 µM)	< 0.008	< 0.008	< 0.008	Cc1ccc2c(=O)n([C@H](C)[C@](O)(Cn3cncn3)c3ccc(F)cc3F)ccc2c1								
< 0.008	0.063 (≈ 0.133 µM)	< 0.008	1 (≈ 2.1 µM)	< 0.008	< 0.008	< 0.008	C[C@@H](n1ccc2cc(Br)ccc2c1=O)[C@](O)(Cn1cncn1)c1ccc(F)cc1F								
< 0.008	0.125 (≈ 0.302 µM)	< 0.008	0.25 (≈ 0.603 µM)	< 0.008	< 0.008	< 0.008	C[C@@H](n1ccc2cc(F)ccc2c1=O)[C@](O)(Cn1cncn1)c1cc(F)ccc1F								
